In patent US9492470B2, “Use of HMGA-targeted phosphorothioate DNA aptamers to suppress carcinogenic activity and increase sensitivity to chemotherapy agents in human cancer cells” (MIAMI UNIVERSITY, priority 2012, dated 2016):
Like-named read-outs stand apart in the source and are kept apart here. In the oligonucleotide strings, read from the 5' end, every base follows the letter of its sugar. An asterisk marks phosphorothioate; unmarked linkages are phosphodiester. Other units and linkages are bracketed, terminal groups are in braces. A string of capitals states the bases alone. d = 2'-deoxy (DNA)

Legend:
Miapaca-2 cells [1] = test: Cell viability (crystal violet) after sDNA transfection, Miapaca-2; type: cell-based, Human; conditions: for cells dead compared to UT: versus untransfected (UT) cells; for Fold change in numbers of viable cells between TC and sDNA transfected cells (in parentheses) / Fold change in numbers of viable cells between UT and transfected cells: 96 h after transfection
Protocol: The absorbance was measured at 570 nm in quadruplicate. All data from control cells were combined and averaged.

Miapaca-2 cells [2] = test: Cell growth with gemcitabine treatment after sDNA transfection, Miapaca-2; type: cell-based, Human; conditions: 96 hours
[3] = system: HMGA1 expression levels in AsPC-1 cells; test: Western blot of HMGA1 expression levels in AsPC-1 nuclear extracts; type: cell-based, Human; conditions: AsPC-1, 0.5 μg sDNA in six well plates, 48 hours
Protocol: Cytoplasmic and nuclear protein extracts were prepared from pancreatic cancer cells using NE-PER extraction kit (Thermo Scientific, Rockford, Ill.). Protein concentrations were determined using a bicinchoninic acid assay with bovine serum albumin as a standard. Nuclear proteins that contained 25 or 15 μg total protein were separated by SDS-PAGE with a 4%-20% Criterion gradient gel (Bio-Rad Laboratories, Inc., Hercules, Calif.). The proteins were transferred to immuno-blot PVDF membrane (0.2 μm) (Bio-Rad Laboratories, Inc., Hercules, Calif.) and blocked in 5% dry milk in PBS supplemented with 0.2% Tween 20 (PBST). The PVDF membranes were then probed with 1:1000 dilution of rabbit anti-HMGA1 antibody (Santa Cruz Biotechnology Inc, Santa Cruz, Calif.) and 1:100 dilution of rabbit anti-HMGA2 antibody (Abcam plc, Cambridge, Mass.), in 3% BSA in PBST at 4° C. overnight. After three washes with PBST, the membrane was blotted with secondary antibody, ant-rabbit IgG-HRP (cell signaling) 1:5000 dilution in 1% dry milk in PBST at room temperature for 1 hour. An enhanced chemiluminescence detection (ECL, GE Healthcare Life Sciences, Piscataway, N.J.) system was used to detect target proteins. To ensure equal loading of the proteins between groups, membranes were re-probed with anti-TATA binding protein antibody (Abcam plc, Cambridge, Mass.). […] The control was nuclear extract from untreated cells. Triplicates of each sample were run on the gel and analyzed with the Alpha Imager. The relative HMGA1 densities were obtained by dividing HMGA 1 density by TBP density. […] TATA binding protein (TBP) was used as a loading control. […] HMGA1 expression levels were examined after transfection with CG-sDNA or AT-sDNA to determine if the transfection procedure affected HMGA1 expression levels. The AT-sDNA used for transfection contained an 18 adenine/thymine stretch enabling HMGA1 to bind the DNA with all three AT-hooks. As a negative control, a non-HMGA1-targeted sDNA containing an equal length of DNA but with no AT-stretches, i.e. CG-sDNA, was used. […]

Miapaca-2 cells [4] = test: Cell growth with gemcitabine treatment after sDNA transfection, Miapaca-2; type: cell-based, Human; conditions: 96 hours; for Fold change in numbers of viable cells normalized relative to TC: Miapaca-2, 0.1 ug sDNA
Protocol: (§1) Cells were fixed after 96 hours and numbers of viable cells counted by measuring the absorbance at 570 nm.
(§2) Cells were transfected with 0.1 μg of TC-sDNA, Mix-sDNA, CG-sDNA, and AT-sDNA.

AsPC-1 cells [5] = conditions: for cell death: 96 h, compared to non-transfected cells; for cells dead compared to UT: versus untransfected (UT) cells; for Fold change in numbers of viable cells between TC and sDNA transfected cells (in parentheses) / Fold change in numbers of viable cells between UT and transfected cells: 96 h after transfection
Protocol: AsPC-1 cells were grown in Roswell Park Memorial Institute medium supplemented with 10% FBS, and 1% penicillin-streptomycin.
Transfections using sDNA at concentrations of 0.1 and 0.25 μg per well were conducted with 5×10^4 and 1×10^5 Miapaca-2 and AsPC-1 cells, respectively, in 24-well plates and all data were collected in quadruplicate. Miapaca-2 and AsPC-1 cells were transfected with sDNA using Lipofectamine 2000 (Invitrogen,™ Life Technologies Corporation, Carlsbad, Calif.) according to the manufacturer's protocol.
Briefly, AsPC-1 cells grown in 10% FBS containing RPIM medium were trypsinized using a trypsin-EDTA solution commercially available from the Sigma-Aldrich, and used to seed fresh media in a 24-well plate with 10^5 cells per well.
After 48 hours, the cells were transfected with the selected sDNA using Lipofectamine 2000 (Invitrogen,™ Life Technologies Corporation, Carlsbad, Calif.) according to the manufacturer's protocol. […] The cells were then fixed with 4% paraformaldehyde in PBS for 20 minutes and stained in 0.1% crystal violet stain (Sigma-Aldrich) for 30 minutes. The cells were washed under running tap water, air dried, and extracted with 0.2% Triton™ X-100 for 30 minutes. […] The absorbance of the Triton X-100 was measured at 570 nm using a HTS microplate reader. All results were analyzed for statistical significance using a student's unpaired t-test.

AsPC-1 cells [6] = test: Cell growth with gemcitabine treatment after sDNA transfection, AsPC-1; type: cell-based, Human; conditions: AsPC-1, 0.1 ug sDNA, 96 hours
Protocol: as §1, §2

AsPC-1 cells [7] = test: as above; type: cell-based, Human; conditions: AsPC-1, 0.25 ug sDNA, 96 hours

Substance: CG-sDNA: CG-rich phosphorothioate DNA (SEQ ID NO: 12), negative control with no AT-stretches (DNA dC*dC*dC*dC*dG*dG*dG*dC*dC*dC*dC*dG*dG*dC*dC*dG*dG*dG*dC*dG*dC*dC*dG*dC)
- cells dead compared to UT (Miapaca-2 cells [1]; Miapaca-2, 0.1 ug sDNA, 48 hrs): 36.3%
- Fold change in numbers of viable cells between TC and sDNA transfected cells (in parentheses) (Miapaca-2 cells [1]; Miapaca-2, 0.1 μg sDNA): (1.09) fold
- Fold change in numbers of viable cells between UT and transfected cells (Miapaca-2 cells [1]; Miapaca-2, 0.1 μg sDNA): −1.43 fold
- cells dead compared to UT (Miapaca-2 cells [1]; Miapaca-2, 0.1 ug sDNA, 96 hrs): 32.0%
- difference in cell viability between TC cells and sDNA transfected cells (Miapaca-2 cells [1]; Miapaca-2, 0.1 ug sDNA, both 48 and 96 hours): no significant differences
- Fold change in numbers of viable cells between TC and sDNA transfected cells (in parentheses) (Miapaca-2 cells [1]; Miapaca-2, 0.25 μg sDNA): (−1.30) fold
- Fold change in numbers of viable cells between UT and transfected cells (Miapaca-2 cells [1]; Miapaca-2, 0.25 μg sDNA): −2.15 fold
- Fold change in numbers of viable cells normalized relative to TC (Miapaca-2 cells [2]; Miapaca-2, 0.1 ug sDNA, Gemcitabine 1 nM): 1.12 fold
- Fold change in numbers of viable cells normalized relative to TC (Miapaca-2 cells [2]; Miapaca-2, 0.25 ug sDNA, Gemcitabine 0 nM): −1.30 fold
- Fold change in numbers of viable cells normalized relative to TC (Miapaca-2 cells [2]; Miapaca-2, 0.25 ug sDNA, Gemcitabine 1 nM): −1.38 fold
- Fold change in numbers of viable cells normalized relative to TC (Miapaca-2 cells [2]; Miapaca-2, 0.25 ug sDNA, Gemcitabine 10 nM): −1.37 fold
- Fold change in numbers of viable cells normalized relative to TC (Miapaca-2 cells [2]; Miapaca-2, 0.25 ug sDNA, Gemcitabine 30 nM): −2.97 fold
- Fold change in numbers of viable cells normalized relative to TC (Miapaca-2 cells [2]; Miapaca-2, 0.25 ug sDNA, Gemcitabine 100 nM): −5.48 fold
- Fold change in numbers of viable cells normalized relative to TC (Miapaca-2 cells [2]; Miapaca-2, 0.25 ug sDNA, Gemcitabine 1000 nM): −4.11 fold
- change in HMGA1 expression levels after sDNA transfection [3]: no changes
- cells dead / change in cell viability (Miapaca-2 cells [4]; Miapaca-2, 0.1 μg sDNA, 1 nM gemcitabine): no significant change
- cells surviving (Miapaca-2 cells [4]; Miapaca-2, 0.1 μg sDNA, 10 nM gemcitabine, normalized to 0 nM gemcitabine): 83.9%
- Fold change in numbers of viable cells normalized relative to TC (Miapaca-2 cells [4]; Gemcitabine 0 nM): 1.09 fold
- Fold change in numbers of viable cells normalized relative to TC (Miapaca-2 cells [4]; Gemcitabine 10 nM): −1.09 fold
- Fold change in numbers of viable cells normalized relative to TC (Miapaca-2 cells [4]; Gemcitabine 30 nM): −3.29 fold
- Fold change in numbers of viable cells normalized relative to TC (Miapaca-2 cells [4]; Gemcitabine 100 nM): −4.06 fold
- Fold change in numbers of viable cells normalized relative to TC (Miapaca-2 cells [4]; Gemcitabine 1000 nM): −4.24 fold
- cell death (AsPC-1 cells [5]; AsPC-1, 0.1 μg sDNA per well): 12%
- cells dead compared to UT (AsPC-1 cells [5]; AsPC-1, 0.1 ug sDNA, 48 hrs): 33.8%
- Fold change in numbers of viable cells between TC and sDNA transfected cells (in parentheses) (AsPC-1 cells [5]; AsPC-1, 0.1 μg sDNA): (−1.11) fold
- Fold change in numbers of viable cells between UT and transfected cells (AsPC-1 cells [5]; AsPC-1, 0.1 μg sDNA): −1.20 fold
- cells dead compared to TC (AsPC-1 cells [5]; AsPC-1, 0.1 μg sDNA, 96 hrs, versus transfection control (TC) cells): 9.7%
- cells dead compared to UT (AsPC-1 cells [5]; AsPC-1, 0.1 ug sDNA, 96 hrs): 14.3%
- difference in cell viability between TC cells and sDNA transfected cells (AsPC-1 cells [5]; AsPC-1, 0.1 ug sDNA, both 48 and 96 hours): no significant differences
- cell death (AsPC-1 cells [5]; AsPC-1, 0.25 μg sDNA per well): 16%
- Fold change in numbers of viable cells between TC and sDNA transfected cells (in parentheses) (AsPC-1 cells [5]; AsPC-1, 0.25 μg sDNA): (−1.10) fold
- Fold change in numbers of viable cells between UT and transfected cells (AsPC-1 cells [5]; AsPC-1, 0.25 μg sDNA): −1.19 fold
- cell death compared to TC (AsPC-1 cells [5]; AsPC-1, 0.25 μg sDNA, 96 hours, versus TC cells): 9.0%
- cell death (AsPC-1 cells [5]; AsPC-1, 1.0 μg sDNA per well): 60%
- cells dead compared to TC (AsPC-1 cells [5]; AsPC-1, 1.0 μg sDNA, 96 hours, versus TC cells): 56.4%
- Fold change in numbers of viable cells normalized relative to TC (AsPC-1 cells [6]; Gemcitabine 0 nM): −1.11 fold
- Fold change in numbers of viable cells normalized relative to TC (AsPC-1 cells [6]; Gemcitabine 1 nM): −1.09 fold
- Fold change in numbers of viable cells normalized relative to TC (AsPC-1 cells [6]; Gemcitabine 10 nM): −1.18 fold
- Fold change in numbers of viable cells normalized relative to TC (AsPC-1 cells [6]; Gemcitabine 30 nM): −1.34 fold
- Fold change in numbers of viable cells normalized relative to TC (AsPC-1 cells [6]; Gemcitabine 100 nM): −1.52 fold
- Fold change in numbers of viable cells normalized relative to TC (AsPC-1 cells [6]; Gemcitabine 1000 nM): −1.67 fold
- Fold change in numbers of viable cells normalized relative to TC (AsPC-1 cells [7]; Gemcitabine 0 nM): −1.10 fold
- Fold change in numbers of viable cells normalized relative to TC (AsPC-1 cells [7]; Gemcitabine 1 nM): −1.10 fold
- Fold change in numbers of viable cells normalized relative to TC (AsPC-1 cells [7]; Gemcitabine 10 nM): −1.21 fold
- Fold change in numbers of viable cells normalized relative to TC (AsPC-1 cells [7]; Gemcitabine 30 nM): −1.69 fold
- Fold change in numbers of viable cells normalized relative to TC (AsPC-1 cells [7]; Gemcitabine 100 nM): −1.36 fold
- Fold change in numbers of viable cells normalized relative to TC (AsPC-1 cells [7]; Gemcitabine 1000 nM): −2.16 fold
